Structures can show the parent of a compound that is named as a salt. Where two headings read alike, the source gives them in different places.

One may read the half-life as how long it takes for the measured level to halve.

The conditions of data set [1]: in vivo; cited from earlier work.
For data set [2] the following is noted: human or mouse skin; cited from earlier work.
The conditions of data set [3]: in vivo; cited from earlier work. This is another data set of the same source.
The conditions of data set [4]: given intravenously or intramuscularly; cited from earlier work.
For data set [5] the following is noted: in animals; cited from earlier work.
For data set [6] the following is noted: man, incomplete and variable, averaging; cited from earlier work.
A further data set in a line: in vitro. The data set is classed as in vitro ADME, human. As to conditions: for half-life: human, serum. Summed up: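 Complex from 6 mM ethanol stock added to freshly defrosted human serum at 37° C. Aliquots quenched in 2% zinc sulfate, centrifuged, and supernatant analysed by reversed-phase C8 HPLC for % remaining by peak area. Half-life from slope of ln % remaining vs time.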

Where [7] appears, read: Table 5, human serum, 37° C., read-out: Serum Half-life (converted).

`O=c1[nH]cc(F)c(=O)[nH]1` [fluorouracil, 5-fluoro-2,4 (1H,3H)-pyrimidinedione]: the “passage across blood-brain barrier and placenta” value in data set [1] is “diffuses readily across the blood-brain barrier”.
Regarding Cytochrome c, the “iontophoretic transport across skin” value in data set [2] was “can be iontophoretically transported readily across human or mouse skin”.
In the case of `CCn1cc(C(=O)O)c(=O)c2ccc(C)nc21` [Nalidixic acid], in data set [3], the absorption result is listed as “rapidly absorbed from the gastrointestinal tract”.
For `O=C1Nc2ccc(Cl)cc2C(c2ccccc2Cl)=NC1O` (stereo not shown) [lorazepam, 7-chloro-5-(o-chlorophenyl)-1,3-dihydro-3-hydroxy-2H-1,4-benzodiazepin-2-one], in data set [4], the mean half-life result is given as “about 16 hours”.
As to `O=C1Nc2ccc(Cl)cc2C(c2ccccc2Cl)=NC1O[C@@H]1O[C@H](C(=O)O)[C@@H](O)[C@H](O)[C@H]1O` (stereo partly shown) [lorazepam glucuronide], the “central nervous system activity” value in data set [5] is “no demonstrable central nervous system activity”.
Take `C[C@H]1O[C@@H](O[C@H]2[C@@H](O)C[C@H](O[C@H]3[C@@H](O)C[C@H](O[C@H]4CC[C@@]5(C)[C@H](CC[C@@H]6[C@@H]5CC[C@]5(C)[C@@H](C7=CC(=O)OC7)CC[C@]65O)C4)O[C@@H]3C)O[C@@H]2C)C[C@H](O)[C@@H]1O` [digitoxin, 3β,5β-3-[(O-2,6-dideoxy-β-D-ribo-hexopyranosyl(1→4)-O-2,6-dideoxy-β-D-ribo-hexopyranosyl-(1→4)-2,6-dideoxy-β-D-ribohexopyranosyl)oxy]-14-hydroxycard-20(22)-enolide]: the absorption entry in data set [3] is listed as “completely absorbed”.
For the compound `O.Sc1ncnc2nc[nH]c12` [mercaptopurine, 1,7-dihydro-6H-purine-6-thione monohydrate], the “absorption of an oral dose” value in data set [6] was “approximately 50 % of the administered dose”.
`CCCCCCCCCCCCCCCC(=O)OC(CC(=O)OC1C(O)CC(OC2C(O)CC(OC3C(O)CC(OC4CCC5(C)C(CCC6C5CC(O)C5(C)C(C7=CC(=O)OC7)CCC65O)C4)OC3C)OC2C)OC1C)C[N+](C)(C)C` (stereo not shown) [digoxin-4'"-(O-palmitoylcarnitinate) chloride salt]: the half-life in the data set “in vitro” (setting [7]) was 19 min.
On to `CC(=O)O[C@H](CC(=O)Oc1ccc2c(c1)CC[C@@H]1[C@@H]2CC[C@]2(C)[C@@H](O)CC[C@@H]12)C[N+](C)(C)C` [17β-estradiol-3-(O-acetyl-L-carnitine) ester], for which the half-life in “in vitro” (setting [7]) is 8 min.
Still for that read-out and setting: with `COc1ccc2c(c1)c(CC(=O)CO)c(C)n2C(=O)c1ccc(Cl)cc1` [indomethacin hydroxymethyl ketone] the figure was 900 min; with `Cn1c(=O)c2c(ncn2COC(=O)C[N+](C)(C)C)n(C)c1=O` [theophylline-7-(N,N,N,-trimethylglycyloxymethyl), iodide salt], 0.5 min.
On the same count and under the same terms, with `C[C@H]1O[C@@H](O[C@H]2[C@@H](O)C[C@H](O[C@H]3[C@@H](O)C[C@H](O[C@H]4CC[C@@]5(C)[C@H](CC[C@@H]6[C@@H]5CC[C@]5(C)[C@@H](C7=CC(=O)OC7)CC[C@]65O)C4)O[C@@H]3C)O[C@@H]2C)C[C@H](O)[C@@H]1OC(=O)OCC[N+](C)(C)C` [digitoxin-4"'-(choline chloride) carbonate ester] the figure was 5.3 min; with `CCCCCCCCCCCCCCCC(=O)O[C@H](CC(=O)O[C@H]1CC[C@@]2(C)[C@H](CC[C@@H]3[C@@H]2CC[C@]2(C)[C@@H](C4=CC(=O)OC4)CC[C@]32O)C1)C[N+](C)(C)C` [digitoxigenin-3-(O-palmityl-L-carnitine) ester, chloride salt], around 180 min.
On the same count and under the same terms, with `C[C@]12CC[C@H](OC(=O)CCCCCN3CCOCC3)C[C@H]1CC[C@@H]1[C@@H]2CC[C@]2(C)[C@@H](C3=CC(=O)OC3)CC[C@]12O` [digitoxigenin-3-(6-morpholino-hexanoate)] the figure was 14900 min.
For `CC(=O)OC(CC(=O)OCCCCCCCCCC(=O)OCC(=O)OC1=CC2=CC[C@H]3[C@@H]4CC[C@H](C(C)=O)[C@@]4(C)CC[C@@H]3[C@@]2(C)CC1)C[N+](C)(C)C` (stereo partly shown) [Progesterone 3-{2-O-[10-O-(O-acetylcarnitinyl)decanoyl]glycolic acid} enol ester], in “in vitro” (Table 4, human serum, 37° C.), the “In vitro Half-Life” value is recorded as 28.9 min. Further, the “Serum Half-life” value in the data set “in vitro” (Table 5, human serum, 37° C.) is on record as 28.9 min.
As to `COc1ccc2c(c1)c(CCNC(C)=O)cn2C(=O)OCC[N+](C)(C)C` [melatonin-1-choline carbamate, bromide salt], the half-life in “in vitro” (setting [7]) is 900 min.
Turning to `CC(=O)OC(CC(=O)OC1C(O)CC(OC2C(O)CC(OC3C(O)CC(OC4CCC5(C)C(CCC6C5CC(O)C5(C)C(C7=CC(=O)OC7)CCC65O)C4)OC3C)OC2C)OC1C)C[N+](C)(C)C` (stereo not shown) [digoxin-4'"-(O-acetylcarnitinate) chloride salt], the half-life in the data set “in vitro” (setting [7]) is 5 min.
Still for that read-out and setting: under `CC(=O)O[C@H](CC(=O)O[C@H]1CC[C@@]2(C)[C@H](CC[C@@H]3[C@@H]2CC[C@]2(C)[C@@H](C4=CC(=O)OC4)CC[C@]32O)C1)C[N+](C)(C)C` [digitoxigenin-3-(O-acetyl-L-carnitine) ester, chloride salt] stands 324 min.
Still for that read-out and setting: with `CC(=O)O[C@H](CC(=O)OC[C@H](NC(=O)OCc1ccccc1)C(=O)OCc1ccccc1)C[N+](C)(C)C` [serine, L-isomer, HO-(O-acetyl-L-carnitine ester) N-CBZ, benzyl ester] the figure was 21 min.
On the same count and under the same terms, under `CC1OC(OC2C(O)CC(OC3C(O)CC(OC4CCC5(C)C(CCC6C5CC(O)C5(C)C(C7=CC(=O)OC7)CCC65O)C4)OC3C)OC2C)CC(O)C1OC(=O)CCC[N+](C)(C)C` (stereo not shown) [digoxin-4'"-(4-trimethylamino)butyrate bromide] stands 420 min.
Turning to `CC1OC(OC2C(C)OC(OC3C(C)OC(OC4CCC5(C)C(CCC6C5CC(OC(=O)OCOC(=O)CCCCC[N+](C)(C)C)C5(C)C(C7=CC(=O)OC7)CCC65O)C4)CC3OC(=O)OCOC(=O)CCCCC[N+](C)(C)C)CC2OC(=O)OCOC(=O)CCCCC[N+](C)(C)C)CC2OC(=O)OC12` (stereo not shown) [digoxin-3',3",12-tris-(6-trimethylaminohexanoyloxymethyl carbonate)-3'",4""-cyclic carbonate, tribromide salt], the “Serum Half-life” value in the data set “in vitro” (Table 5, human serum, 37° C.) is 840 min.
As to `CC(=O)O[C@H](CC(=O)NCCC(=O)OCCc1ccc([N+](=O)[O-])cc1)C[N+](C)(C)C` [2-(4-nitrophenyl)ethyl 3-(O-acetyl-L-carnitinamido)propanoate], the half-life is 5.5 min in the data set “in vitro” (Table 4, human serum, 37° C., read-out: In vitro Half-Life (converted)); 5.5 min in the data set “in vitro” (Table 4, read-out: serum half-life (converted)); 5.5 min in the data set “in vitro” (setting [7]).
Consider `C[C@]12CC[C@H]3[C@@H](CCC4=CC(=O)CC[C@@]43C)[C@@H]1CC[C@@H]2OC(=O)OCOC(=O)C[N+](C)(C)C` [testosterone-17-betainoyloxymethyl carbonate, iodide salt], for which the half-life in the data set “in vitro” (setting [7]) was 0.633 min.
As for `CN(Cc1cnc2nc(N)nc(N)c2n1)c1ccc(C(=O)N[C@@H](CCC(=O)OCC[N+](C)(C)C)C(=O)OCC[N+](C)(C)C)cc1` [methotrexate-bis-choline ester, dibromide salt], the half-life in “in vitro” (setting [7]) is 840 min.
On the same count and under the same terms, with `CCCCCCCCCCCCCCCC(=O)O[C@H](CC(=O)O[C@H]1CC[C@H]2[C@@H]3CCC4=CC(=O)CC[C@]4(C)[C@H]3CC[C@]12C)C[N+](C)(C)C` [testosterone-17-(O-palmityl-L-carnitinate), chloride salt] the figure was 7060 min.
With “digitoxigenin-3-(O-acetyl-D,L-carnitine) ester, (D isomer), chloride salt”, the “Serum Half-life” value in “in vitro” (Table 5, human serum, 37° C.) is reported as ~ 50 min.
`CC1OC(OC2C(O)CC(OC3C(O)CC(OC4CCC5(C)C(CCC6C5CC(O)C5(C)C(C7=CC(=O)OC7)CCC65O)C4)OC3C)OC2C)CC(O)C1OC(=O)CCCN(C)C` (stereo not shown) [digoxin-4'"-4-(dimethylamino)butyrate]: the half-life in the data set “in vitro” (setting [7]) is 84 min.
Still for that read-out and setting: with `CC1OC(OC2CCC3(C)C(CCC4C3CC(OC(=O)OC[N+](C)(C)C)C3(C)C(C5=CC(=O)OC5)CCC43O)C2)CC(O)C1OC1CC(O)C(OC2CC3OC(=O)OC3C(C)O2)C(C)O1` (stereo not shown) [digoxin-12-(N,N,N-trimethylaminomethyl)-carbonate 3"',4'"-cyclic carbonate, chloride salt] the figure was 42 min; with `C[C@]12CCC(=O)C(OC(=O)OCC[N+](C)(C)C)=C1CC[C@@H]1[C@@H]2CC[C@]2(C)C(=O)CC[C@@H]12` [formestane-4-choline carbonate, bromide salt], 26 min.
Same read-out and setting: under `C[C@]12CC[C@H]3[C@@H](CCC4=CC(=O)CC[C@@]43C)[C@@H]1CC[C@@H]2OC(=O)OCOC(=O)CCCCC[N+](C)(C)C` [testosterone-17-(6-trimethylammoniohexanoyloxymethyl) carbonate, bromide salt] stands 19 min; under `C#CC[N+](C)(COC(=O)OCCCCCCCC)C(C)Cc1ccccc1` (stereo not shown) [deprenyl-N-octyloxycarbonyloxymethyl, iodide salt], 0.433 min; under `CC1OC(OC2CCC3(C)C(CCC4C3CC(OC(=O)CCCN(C)C)C3(C)C(C5=CC(=O)OC5)CCC43O)C2)CC(O)C1OC1CC(O)C(OC2CC3OC(=O)OC3C(C)O2)C(C)O1` (stereo not shown) [digoxin-12-[4-(N,N-dimethylamino)butyrate]-3"',4'"-cyclic carbonate, hydrochloride salt], 1440 min.
The same measure, in the same setting: with `CC1OC(OC2C(O)CC(OC3C(O)CC(OC4CCC5(C)C(CCC6C5CC(O)C5(C)C(C7=CC(=O)OC7)CCC65O)C4)OC3C)OC2C)CC(O)C1OC(=O)OCC[N+](C)(C)C` (stereo not shown) [digoxin-4'"-(choline chloride) carbonate ester] the figure was 1.32 min.
As to `O=C(OCCc1ccc([N+](=O)[O-])cc1)c1cccnc1` [p-nitrophenylethyl alcohol nicotinate ester], the half-life in “in vitro” (setting [7]) was 0.433 min.
